Source: patent EP4516108A1, “METHOD FOR PRESERVING A BAKERY PRODUCT USING CHITOSAN AS INGREDIENT” (Mauri Technology B.V., priority 2023, dated 2025)

Experiments:
P. paneum = assay: Accelerated shelf-life testing (ASLT): time of appearance (TOA) and growth pattern of mould on inoculated breadcrumbs; format: cell-based, Penicillium paneum; settings: Example 1, tin breads, ±500 spores, around 21 °C; CalPro 0.3% FWB, chitosan 1% FWB (about 1 wt.%)
A. niger = assay: Accelerated shelf-life testing (ASLT): time of appearance (TOA) of mould on inoculated breadcrumbs
Method: Breads were made by mixing the dough ingredients from Table 1. The wt.% for several ingredients are given based on flour weight (Flour Weight Based, FWB). For the prepared recipes the difference with total dry weight is insubstantial. The following breads were prepared: a control without any preservatives, a reference containing 0.3% flour weight based (FWB) calcium propionate (CalPro), and a bread containing 1% chitosan (KitoZyme, Belgium) with number average MW of 15 kDa and degree of deacetylation (DDA) of 70%. […] Ingredients were mixed using a spiral mixer for 10 minutes. Afterwards the dough for each trial was divided into three pieces of 520 g, rounded manually, and placed into bread tins. The dough pieces were placed in a proofing cabinet to rise at 40 °C and 80% relative humidity until they reach similar height (fermentation time between 60-70 min). The breads were baked for 22 minutes in a deck oven at 260 (bottom) and 230 (top) °C.
Following baking, the breads were cooled in a HEPA-filtered chamber for 90 min. One bread was used for pH measurement and two breads were subjected to ASLT.
To perform ASLT, the remaining two breads were sliced to 13 mm slices. The crumb (inner part of breads) of three random slices from each bread were cut out using a cookie cutter (3.2 cm diameter) and placed in sterile 6-well plates (2x breads × 3 slices). Two 6-well plates were prepared per bread type. Each bread piece in a 6-well plate was inoculated with 3 aliquots of ±500 spores (20 pL) of either A. niger or P. paneum. Therefore, 18 spots of each mould were inoculated per trial (6 bread piece × 3 aliquots). Freeze-dried spores were used in all experiments. The inoculated breads incubated at room temperature of around 21 °C untill visible mould appearance. The appearance of the moulds was imaged by taking photographs. The images were inspected visually, and the TOA was defined as mould appearance in hours after mould inoculation.
Due to limited availability of the high MW chitosan samples, ASLT was performed at small scale in bread rolls. […]

[1] = cited from earlier work

| SMILES | increased TOA of P. paneum compared to control bread without preservatives (P. paneum) | effectiveness against A. niger, CalPro compared to chitosan (A. niger; CalPro 0.3% FWB vs chitosan 1% FWB) | TOA of A. niger improved compared to control without preservative (A. niger; CalPro 0.3% FWB, FWF 0.78% FWB, chitosan >0.5 wt.%, alone or in combination) | increased TOA of A. niger compared to control bread without preservatives (A. niger; Example 1, tin breads, ±500 spores, around 21 °C, CalPro 0.3% FWB, chitosan 1% FWB (about 1 wt.%)) | pKa [1] |
| --- | --- | --- | --- | --- | --- |
| CCC(=O)[O-].CCC(=O)[O-].[Ca+2] [CalPro, calcium propionate] | 17% | more effective | approximately 50% | 80% |  |
| CC(O)C(=O)O (stereo not drawn) [lactic acid] |  |  |  |  | about 3.85 |
| C/C=C/C=C/C(=O)O [sorbic acid] |  |  |  |  | about 4.76 |
